Experimental findings from a melting point compilation (Tetko et al.; mined from patent text by program, amines drawn as free bases though some values may be those of a salt) are described below.

Bounds are passed on as bounds.

The term melting point denotes the temperature, or range, at which the solid turns liquid. In the case of `NS(=O)(=O)c1cc2ccccc2n1S(=O)(=O)c1ccccc1`, the melting point lay within 199 to 200 °C. As for `Cc1cc(C)cc(Cc2[nH]c(=O)[nH]c(=O)c2C(C)C)c1`, the figure is 213 to 214 °C; as for `COc1ccc(-c2csc(Nc3cccc(C)n3)n2)cc1OC`, 264 to 266 °C. Take `CC(COc1ccccc1)OS(C)(=O)=O` (stereo not drawn): the melting point turned out to be 58 °C.

The molecule `COc1cccc(OC)c1C(=O)C=Cc1ccccc1` registered a melting point of 123 to 124 °C. `CN(C)c1cccc2c(S(=O)(=O)Nc3ccc([N+](=O)[O-])cn3)cccc12` had a melting point of 196 °C.

Take `COc1cc(Cc2cnc(N)nc2N)cc(C=Cc2ccccc2)c1OC`: the melting point was determined as 226 °C. As for `CCOC(=O)C(Cc1c(OCC)noc1-c1ncn(C(c2ccccc2)(c2ccccc2)c2ccccc2)n1)(NC(C)=O)C(=O)OCC`, the figure is 145 to 149 °C; as for `Cc1nnc(-c2ccc3occ(-c4cnn(Cc5ccccc5F)c4)c3c2)o1`, 142 to 143 °C; as for `Cc1cc(N)cc(C)c1S(=O)(=O)NCCSCCN`, 150 to 160 °C. `NCc1ccc(CN2CCN(c3ncccn3)CC2)cc1` displayed a melting point of 70 to 72 °C.

In the case of `C#CCOCc1nnc(Nc2ccc3c(c2)ncn3-c2ccccc2)c2ccccc12`, the melting point fell in the range of 89 to 91 °C. On to `CC(C)OCCNC(=O)c1cccc(-c2cccc3cc(Cc4cc(F)cc(Cl)c4)sc23)c1`, for which the melting point was in the range of 84 to 85 °C. On to `Brc1ccc2c(c1)oc1cc(Br)ccc12`, for which the melting point fell in the range of 199 to 200 °C. Molecule `N#Cc1ccc(OCc2ccc(CCc3ccncc3)cc2)cc1` yielded a melting point of 139 to 140 °C. For `CC(C)NC1CN(c2c(F)cc3c(=O)c(C(=O)O)cn(-c4nc(N)c(F)cc4F)c3c2Br)C1`, the melting point is over 203 °C. `CCCCCCC(CC(=O)Nc1cc(C(N)=O)ccc1C(C)(C)C)c1ccc(OC)cc1OC` (stereo not drawn) displayed a melting point of 152 to 153 °C. `CONC(=O)Nc1ccc(-c2sc3c(c2CN(C)C(C)c2ccccc2)c(=O)n(-c2ccccn2)c(=O)n3Cc2c(F)cccc2F)cc1` (stereo not drawn) came in with a melting point of 168 to 170 °C. The molecule `COc1c(C)c(C)c(OC)c(C=CC(=O)C(=O)O)c1C` gave a melting point of 126 to 127 °C.

In the case of `COC1=CC(=O)C(=O)C=C1NCCCl`, the melting point lay in the range of 150 to 152 °C. Consider `COc1cc2c(cc1C(F)(F)F)N(C(=O)Nc1ccc(Oc3cccnc3)nc1)CC2`, for which the melting point fell in the range of 202 to 204 °C. `CC(C)(C)COc1c(-c2ccc(S(N)(=O)=O)c(F)c2)cnn(CC(F)(F)F)c1=O` gave a melting point of 144 to 145 °C. Take `CCOC(=O)CNc1nc(C)c(C(=O)OCC)c(NC(C)CC)c1[N+](=O)[O-]` (stereo not drawn): the melting point fell in the range of 43 to 45 °C.

Regarding `CCOC(=O)c1c(Cn2cncn2)nc2cc(OC)c(OC)cc2c1-c1ccc(O)c(O)c1`, the melting point was 122 to 124 °C. To `CC(C)C(=O)O[C@H]1[C@H](C)OC(=O)[C@@H](NC(=O)OC(C)(C)C)COC(=O)[C@@H]1Cc1ccccc1` belongs 143 to 145 °C; to `CO[C@@H](C)CNC(=O)c1c[nH]c2ncc(-c3nn(C)c4cc(F)ccc34)nc12`, 269 to 271 °C. Consider `CSc1ccc(-c2nn(Cc3ccc(F)cc3F)c(=S)cc2-c2ccc(Cl)cc2)cc1`, for which the melting point was 176 to 177 °C. Regarding `COc1ccc(C(=O)Nc2cc(NC(=O)c3cccc(N(C)C)c3)ccc2Br)cc1OC`, the melting point is 184 °C. Turning to `Clc1cccc(N2CCN(CCCCOc3ccc4cn[nH]c4c3)CC2)c1Cl`, the melting point is 101 to 103 °C.

The molecule `O=C(Nc1ccc(C(=O)N2CCCCc3ccccc32)c(Cl)c1)OCCOc1ccccc1` gave a melting point of 144 to 146 °C.

For the molecule `CC(=O)N=c1sc(C)cn1CC(=O)c1cccs1`, the melting point was 187 to 188 °C. `Cc1c(C)c2c(c(C)c1OCc1ccccc1)CCC(C)(CN1CCN(CCOc3ccc(C=C4SC(=O)NC4=O)cc3)CC1)O2` (racemic) displayed a melting point of 192 to 194 °C. Consider `c1ccc(-c2cn3c(n2)sc2cnccc23)cc1`, for which the melting point is 183 to 185 °C.
